Experimental findings from PubChem BioAssay (NCI) are described below.

Values joined by “and” are separate entries in the source; they are usually repeats but may differ in a detail not shown here. Equal values may be shown once.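 In this assay, cells in 96-well plates receive the compound at five concentrations for 48 hours. Endpoints are linearly interpolated between the surrounding concentrations. The concentration for 50% growth inhibition is given as GI50. TGI: total growth inhibition.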 A value given as a limit tells only on which side of the number the result lay.

Holding throughout (test): NCI tumour cell line growth inhibition, 48 h
Assay [1] deals with UACC-257 melanoma.
The subject of assay [2] is RPMI-8226 leukemia.
The test system of assay [3] is SNB-19 CNS.
Assay [4] has as its system SF-268 CNS.
In assay [5] the test system is A498 renal.
Assay [6] deals with SW-620 colon.
In assay [7] the test system is NCI-H522 lung.
For assay [8], the system named is UO-31 renal.
Assay [9] relates to SR leukemia.
Assay [10] relates to SK-OV-3 ovarian.

In the case of `O=C(COC(=O)[C@H](C[Se][Se]C[C@H](NC(=O)c1ccc(Br)cc1F)C(=O)OCC(=O)c1ccc(F)cc1)NC(=O)c1ccc(Br)cc1F)c1ccc(F)cc1`, the GI50 in assay [1] was 1.82 µM; in assay [2] it was 0.132 µM; in assay [3], 0.444 µM; in assay [4], 0.52 µM; in assay [5] it was 0.306 µM; in assay [6], 0.878 µM. The GI50 in assay [7] is 2.2 µM; in [8], 1.11 µM; in assay [9], 0.92 µM; in [10], 0.415 µM. The TGI in assay [1] was 4.39 µM; in assay [2] it was 0.593 µM; in assay [3], 1.63 µM; in [4], 1.18 µM; in assay [5] it was 1.04 µM; in assay [6], 2.43 µM. Moreover, the TGI in assay [7] is 4.38 µM; in assay [8], 2.79 µM; in assay [9], above 43.5 µM; in assay [10], 1.31 µM.
In the case of `Cc1c(N)nc(C2CC(=O)N2CC(N)C(N)=O)nc1C(=O)NC(C(=O)NC(C)C(O)C(C)C(=O)NC(C(=O)NCCc1nc(-c2nc(C(=O)NCCNCC(C)O)cs2)cs1)C(C)O)C(OC1OC(CO)C(O)C(O)C1OC1OC(CO)C(O)C(OC(N)=O)C1O)c1cnc[nH]1` (centres undefined), the GI50 in assay [1] is 6.2 µM; in assay [2], above 50 µM; in assay [3], 13.6 µM; in assay [4] it was 1.69 µM; in assay [6], above 50 µM; in assay [7] it was 0.972 µM. Besides, the GI50 in [8] was 0.974 µM; in assay [9], 0.005 µM; in assay [10], 10.6 µM. For the same molecule, the TGI in assay [1] was 49.4 µM; in assay [2] it was above 50 µM; in assay [3], 50 µM and > 100 µM; in assay [4], 32.6 µM and > 23.2 µM; in assay [5], above 46.6 µM; in assay [6], above 50 µM. In addition, the TGI in assay [7] was 10.8 µM and 7.89 µM; in assay [8], 17 µM and 21.6 µM; in [9] it was 50 µM; in assay [10] it was 50 µM and > 32.9 µM.
In the case of `O=C1OC(c2ccccc2)=N/C1=C\c1ccc(N(CCCl)CCCl)cc1`, the TGI in assay [1], in assay [2], in [3], in assay [4], in assay [5] and in assay [6] was above 100 µM each time. Besides, the TGI in assay [7] is above 95.7 µM; in assay [8], above 100 µM; in assay [9], above 69.7 µM; in [10], above 100 µM.
In the case of `c1csc(-c2[nH]nc3c2CCc2ccccc2-3)c1`, the GI50 in assay [1] was 19.8 µM; in assay [2], 15.6 µM; in [3], 13.3 µM; in assay [4] it was 16.7 µM; in assay [5], 14.3 µM; in assay [6] it was 20.3 µM. Also, the GI50 is 18.9 µM in assay [7], 6.4 µM in assay [8], 21.9 µM in [9] and 24.6 µM in assay [10]. Moreover, the TGI in [1] was 49.1 µM; in assay [2], 55.4 µM; in assay [3] it was above 65.9 µM; in assay [4] it was 55 µM; in assay [5] it was 32.4 µM; in assay [6], 46.1 µM. Moreover, the TGI in assay [7] came out at 44.9 µM; in assay [8], 34.9 µM; in assay [9], 66.3 µM; in assay [10], 65.6 µM.
Take `O=C1C(=O)c2c(ccc3ccccc23)-c2ccccc21`: the GI50 is 1.74 µM in [1]; 0.752 µM in assay [2]; 2.43 µM in assay [3]; 1.77 µM in assay [4]; 10.4 µM in assay [5]; 1.96 µM in assay [6]. Also, the GI50 in assay [7] is 1.32 µM; in [8], 2.39 µM; in assay [9], 2.69 µM; in assay [10], 2.05 µM. The TGI was determined as 4.07 µM in assay [1]; 5.26 µM in assay [2]; 7.97 µM in [3]; 5.73 µM in [4]; 26 µM in assay [5]; 4.23 µM in assay [6]. The TGI in assay [7] was 3.13 µM; in assay [8] it was above 100 µM; in assay [9], above 100 µM; in assay [10] it was 5.06 µM.
As for `CC(=O)OC1CCC2(C)C(=CCC3C4CC(CN5CC5)C(=O)C4(C)CCC32)C1` (centres undefined), the GI50 is 12.9 µM in [1]; 1 µM in assay [2]; 14.1 µM in assay [3]; 13.9 µM in [4]; 11.4 µM in assay [5]; 3.17 µM in assay [6]. The GI50 is 1.52 µM in assay [7], 2.99 µM in [8], 3.39 µM in assay [9] and 15.6 µM in assay [10]. The TGI in assay [1] was determined as 26.4 µM; in assay [2], 6.28 µM; in [3], 29.5 µM; in [4], 28.2 µM; in assay [5] it was 24.9 µM; in assay [6] it was 13.3 µM. Further, the TGI was found to be 3.26 µM in [7], 10.4 µM in assay [8], 13.5 µM in assay [9] and 29.6 µM in assay [10].
As to `Brc1ccc2c(c1)-c1ccccc1C1=NCCN12`, the GI50 in [1] was 1.59 µM; in assay [2], 1.71 µM; in [3], 2.17 µM; in assay [4], 1.77 µM; in [5] it was 0.866 µM; in assay [6] it was 0.44 µM. The GI50 in assay [7] was 0.762 µM; in [8], 0.585 µM; in assay [9] it was 0.753 µM; in assay [10], 2.88 µM. In addition, the TGI in assay [1] was found to be 4.51 µM; in [2], 4.95 µM; in assay [3], 11.6 µM; in assay [4], 9.44 µM; in assay [5], 2.36 µM; in [6], 10.4 µM. For the same molecule, the TGI in [7] came out at 2.75 µM; in assay [8], 3.81 µM; in assay [9] it was 3.83 µM; in assay [10], 16.6 µM.
